From patent publication EP1923473B1, “Bis-diglycolamides (BISDGA) as new extractants for lanthanides [Ln(III)] and actinides [An(III)] from aqueous high-level wastes” (Universidad Autónoma de Madrid, priority 2006, dated 2008)

Experiments:
[1] = Batch extraction from simulated HLLW from the PUREX process, gamma spectrometry; assay type: physicochemical; details: 0.1 mol/L in TPH/1-octanol (90:10)
Description: (§1) The feed solution used for the extraction tests is a simulated solution of an HLLW from the PUREX process, the composition of which is shown in Table 4. Table 4: Composition of the simulated HLLW-PUREX solution used for the extraction tests
(§2) The composition of the HLLW corresponds to a burn-up of 33 GWd/tHM, the generated volume of HLLW being 5000 1/t of fuel. The feed was spiked with ^241Am, ^244Cm, ^252Cf and ^152Eu. Oxalic acid and N-(2-hydroxyethyl)ethylenediaminotriacetate (HEDTA) were also added before the extraction tests.
(§3) 500 µL of the aqueous and organic phases were spiked with 10 µL of a tracer solution containing 241Am, 244Cm, 252Cf and ^152Eu, and were equilibrated for 10 minutes while they were stirred vigorously in a vortex stirrer. After the separation of the phases by centrifugation, 200 µL aliquots of each phase were taken for the determination of the concentration of ^241Am and ^152Eu using a high-purity germanium spectrometer system (EG&G Ortec). The nuclides ^241Am, ^244Cm and ^252Cf were measured by alpha spectrometry with an α-Analyst device of the company Canberra-Packard GmbH, Germany.
(§4) The concentrations of the stable elements were determined by mass spectrometry with an inductively coupled plasma source (ICP-MS) in a DRC Elan 6100 device of Perkin Elmer Sciex. The aqueous phase was measured directly after the appropriate dilution. The organic phase was analyzed after having mineralized the organic matter by microwave acid digestion and subsequent dilution.
(§5) The distribution coefficients were calculated for each element according to section C).
(§6) A 0.1 mol/L solution of compound 4 in the "TPH/1-octanol (90:10)%vol" mixture was prepared. Extraction experiments were carried out with said simulated HLLW in a pure form and also adding oxalic acid and HEDTA to it. These complexing agents have shown to be effective in the DIAMEX process for the complexing of Mo, Zr (H2C2O4) and Pd (HEDTA).
(§7) Extraction experiments were carried out with said simulated HLLW in a pure form and also adding oxalic acid and HEDTA to it.

[2] = Batch extraction from simulated HLLW from the PUREX process; assay type: physicochemical; details: 0.1 mol/L in TPH/1-octanol (90:10)
Description: as §1, §2, §3, §4, §5, §6, §7

[3] = Oxalic acid 0.2 mol/L, HEDTA 0.05 mol/L, TBP 0.5 mol/L
[4] = Oxalic acid 0.2 mol/L, HEDTA 0.05 mol/L, TBP No
[5] = Oxalic acid 0.3 mol/L, HEDTA 0.05 mol/L, TBP 0.5 mol/L
[6] = Oxalic acid 0.3 mol/L, HEDTA 0.05 mol/L, TBP No
[7] = Oxalic acid No, HEDTA No, TBP 0.5 mol/L
[8] = Oxalic acid No, HEDTA No, TBP No

In the case of “2-Dioctylcarbamoylmethoxy-N-[3-[3-(2-dioctylcarbamoyl-methoxyacetylamino)propoxy]propyl]acetamide [Compound 18]”, the “Distribution coefficients Am-241, γ” value [1, 3] is reported as 70, the “Distribution coefficients Am-241, γ” value [1, 4] is reported as 100 and the “Distribution coefficients Am-241, γ” value [1, 5] is reported as 61. For the same substance, the “Distribution coefficients Am-241, γ” value [1, 6] was 97, the “Distribution coefficients Am-241, γ” value [1, 7] was 65 and the “Distribution coefficients Am-241, γ” value [1, 8] was 96. The “Distribution coefficients Ag” value [2, 3] was 0.19, the “Distribution coefficients Ba” value [2, 3] was 0.0008 and the “Distribution coefficients Cd” value [2, 3] was 0.022. The “Distribution coefficients Ce” value [2, 3] was 20, the “Distribution coefficients Cf-252” value [2, 3] was 666 and the “Distribution coefficients Cm-244” value [2, 3] was 95. The “Distribution coefficients Cs” value [2, 3] was 0.0005, the “Distribution coefficients Eu” value [2, 3] was 309 and the “Distribution coefficients Eu-152” value [2, 3] was 282. The “Distribution coefficients Gd” value [2, 3] was 140, the “Distribution coefficients La” value [2, 3] was 12 and the “Distribution coefficients Mo” value [2, 3] was 0.15. For the same substance, the “Distribution coefficients Nd” value [2, 3] was 69, the “Distribution coefficients Pd” value [2, 3] was 0.05 and the “Distribution coefficients Pr” value [2, 3] was 32. The “Distribution coefficients Rb” value [2, 3] was 0.008, the “Distribution coefficients Rh” value [2, 3] was 0.003 and the “Distribution coefficients Ru” value [2, 3] was 0.22. For the same substance, the “Distribution coefficients Sm” value [2, 3] was 284, the “Distribution coefficients Y” value [2, 3] was 631 and the “Distribution coefficients Zr” value [2, 3] was 0.18. For the same substance, the “Distribution coefficients Ag” value [2, 4] was 0.5, the “Distribution coefficients Ba” value [2, 4] was 0.0008 and the “Distribution coefficients Cd” value [2, 4] was 0.032. The “Distribution coefficients Ce” value [2, 4] was 24, the “Distribution coefficients Cf-252” value [2, 4] was 511 and the “Distribution coefficients Cm-244” value [2, 4] was 85. The “Distribution coefficients Cs” value [2, 4] was 0.0004, the “Distribution coefficients Eu” value [2, 4] was 341 and the “Distribution coefficients Eu-152” value [2, 4] was 523. For the same substance, the “Distribution coefficients Gd” value [2, 4] was 197, the “Distribution coefficients La” value [2, 4] was 12 and the “Distribution coefficients Mo” value [2, 4] was 0.21. For the same substance, the “Distribution coefficients Nd” value [2, 4] was 101, the “Distribution coefficients Pd” value [2, 4] was 0.10 and the “Distribution coefficients Pr” value [2, 4] was 44. For the same substance, the “Distribution coefficients Rb” value [2, 4] was 0.008, the “Distribution coefficients Rh” value [2, 4] was 0.004 and the “Distribution coefficients Ru” value [2, 4] was 0.21. The “Distribution coefficients Sm” value [2, 4] was 432, the “Distribution coefficients Y” value [2, 4] was 618 and the “Distribution coefficients Zr” value [2, 4] was 0.51. For the same substance, the “Distribution coefficients Ag” value [2, 5] was 0.08, the “Distribution coefficients Ba” value [2, 5] was 0.0008 and the “Distribution coefficients Cd” value [2, 5] was 0.024. For the same substance, the “Distribution coefficients Ce” value [2, 5] was 22, the “Distribution coefficients Cf-252” value [2, 5] was 1353 and the “Distribution coefficients Cm-244” value [2, 5] was 164. The “Distribution coefficients Cs” value [2, 5] was 0.0004, the “Distribution coefficients Eu” value [2, 5] was 335 and the “Distribution coefficients Eu-152” value [2, 5] was 330. For the same substance, the “Distribution coefficients Gd” value [2, 5] was 146, the “Distribution coefficients La” value [2, 5] was 12 and the “Distribution coefficients Mo” value [2, 5] was 0.19. For the same substance, the “Distribution coefficients Nd” value [2, 5] was 78, the “Distribution coefficients Pd” value [2, 5] was 0.02 and the “Distribution coefficients Pr” value [2, 5] was 35. The “Distribution coefficients Rb” value [2, 5] was 0.008, the “Distribution coefficients Rh” value [2, 5] was 0.003 and the “Distribution coefficients Ru” value [2, 5] was 0.23. The “Distribution coefficients Sm” value [2, 5] was 363, the “Distribution coefficients Y” value [2, 5] was 811 and the “Distribution coefficients Zr” value [2, 5] was 0.06. The “Distribution coefficients Ag” value [2, 6] was 0.14, the “Distribution coefficients Ba” value [2, 6] was 0.0008 and the “Distribution coefficients Cd” value [2, 6] was 0.034. For the same substance, the “Distribution coefficients Ce” value [2, 6] was 24, the “Distribution coefficients Cf-252” value [2, 6] was 1451 and the “Distribution coefficients Cm-244” value [2, 6] was 163. The “Distribution coefficients Cs” value [2, 6] was 0.0006, the “Distribution coefficients Eu” value [2, 6] was 275 and the “Distribution coefficients Eu-152” value [2, 6] was 436. The “Distribution coefficients Gd” value [2, 6] was 196, the “Distribution coefficients La” value [2, 6] was 12 and the “Distribution coefficients Mo” value [2, 6] was 0.19. For the same substance, the “Distribution coefficients Nd” value [2, 6] was 97, the “Distribution coefficients Pd” value [2, 6] was 0.04 and the “Distribution coefficients Pr” value [2, 6] was 43. The “Distribution coefficients Rb” value [2, 6] was 0.008, the “Distribution coefficients Rh” value [2, 6] was 0.003 and the “Distribution coefficients Ru” value [2, 6] was 0.18. For the same substance, the “Distribution coefficients Sm” value [2, 6] was 331, the “Distribution coefficients Y” value [2, 6] was 455 and the “Distribution coefficients Zr” value [2, 6] was 0.13. The “Distribution coefficients Ag” value [2, 7] was 6.8, the “Distribution coefficients Ba” value [2, 7] was 0.0008 and the “Distribution coefficients Cd” value [2, 7] was 0.015. For the same substance, the “Distribution coefficients Ce” value [2, 7] was 14, the “Distribution coefficients Cf-252” value [2, 7] was 605 and the “Distribution coefficients Cm-244” value [2, 7] was 102. The “Distribution coefficients Cs” value [2, 7] was 0.0004, the “Distribution coefficients Eu” value [2, 7] was 299 and the “Distribution coefficients Eu-152” value [2, 7] was 393. For the same substance, the “Distribution coefficients Gd” value [2, 7] was 126, the “Distribution coefficients La” value [2, 7] was 8.5 and the “Distribution coefficients Mo” value [2, 7] was 0.06. The “Distribution coefficients Nd” value [2, 7] was 49, the “Distribution coefficients Pd” value [2, 7] was 2.2 and the “Distribution coefficients Pr” value [2, 7] was 24. For the same substance, the “Distribution coefficients Rb” value [2, 7] was 0.008, the “Distribution coefficients Rh” value [2, 7] was 0.003 and the “Distribution coefficients Ru” value [2, 7] was 0.28. For the same substance, the “Distribution coefficients Sm” value [2, 7] was 234, the “Distribution coefficients Y” value [2, 7] was 1119 and the “Distribution coefficients Zr” value [2, 7] was 16.5. For the same substance, the “Distribution coefficients Ag” value [2, 8] was 5.8, the “Distribution coefficients Ba” value [2, 8] was 0.0008 and the “Distribution coefficients Cd” value [2, 8] was 0.021. The “Distribution coefficients Ce” value [2, 8] was 17, the “Distribution coefficients Cf-252” value [2, 8] was 1352 and the “Distribution coefficients Cm-244” value [2, 8] was 165. The “Distribution coefficients Cs” value [2, 8] was 0.0004, the “Distribution coefficients Eu” value [2, 8] was 267 and the “Distribution coefficients Eu-152” value [2, 8] was 499. The “Distribution coefficients Gd” value [2, 8] was 160, the “Distribution coefficients La” value [2, 8] was 10 and the “Distribution coefficients Mo” value [2, 8] was 0.09. For the same substance, the “Distribution coefficients Nd” value [2, 8] was 74, the “Distribution coefficients Pd” value [2, 8] was 1.7 and the “Distribution coefficients Pr” value [2, 8] was 32. The “Distribution coefficients Rb” value [2, 8] was 0.008, the “Distribution coefficients Rh” value [2, 8] was 0.004 and the “Distribution coefficients Ru” value [2, 8] was 0.24. The “Distribution coefficients Sm” value [2, 8] was 266, the “Distribution coefficients Y” value [2, 8] was 574 and the “Distribution coefficients Zr” value [2, 8] was 9.1.
